From US9498479B2, “Dihydropyrimidine compounds and their application in pharmaceuticals” (SUNSHINE LAKE PHARMA CO., LTD., priority 2013, dated 2016)

System: HBV
Test: In-vitro anti-HBV activity in stable HBV-producing cell line (HepG2.2.15), HBV DNA in culture fluid by qPCR
Assay type: cell-based
Conditions: Hepatitis B virus, 168 h; HepG2.2.15 cells, HBV DNA in culture media on day 7, qPCR
Method: Specific procedures are as follows:
HepG2.2.15 cells were seeded into each well of 96-well plates, 40,000 cells per well. Cells were treated with cell culture medium containing compounds with different concentrations 24 hours after cell seeding. The final concentration of each compound was 16.4 μM in each well and each compound was diluted to desired concentration using 3-fold gradient dilution protocol, 9 diluted points in duplicate. The culture mediums containing the compounds were refreshed on day 4 post cell seeding. Culture media were collected from the HepG2.2.15 plates on day 7 post cell seeding followed by HBV DNA extraction.
HBV DNA extraction: The HBV DNA extraction was performed using QIAamp 96 DNA Blood Kit (QIAGEN 51161).
PCR for quantification: PCR mix was prepared according to PCR system. PCR mix was dispensed to 96-well optical reaction plates (special for quantification). The standard diluted proportionally was added. Then the sample was added; The plates were sealed with optical adhesive film; PCR system was performed according to programs.
Percentage of HBV inhibition of DNA replication by compound was calculated using the following equation: % Inh.=[1-HBV DNA quantity of sample/HBV DNA quantity of DMSO control]*100.
Calculating EC50 value of compounds to HBV replication: the EC50 values were calculated based on “four-parameter logistic equation” and using GraphPad Prism 5 analysis software.

Row | Structure (SMILES) | EC50 [nM]
1 | CCOC(=O)C1=C(CN2CC(F)(F)C[C@@H]2CCC(=O)O)NC(c2nccs2)=N[C@H]1c1ccc(Cl)cc1Cl [Example 21, 3-((S)-1-(((R)-6-(2,4-dichlorophenyl)-5-(ethoxycarbonyl)-2-(thiazol-2-yl)-3,6-dihydropyrimidin-4-yl)methyl)-4,4-difluoropyrrolidin-2-yl)propanoic acid] | 9
2 | COC(=O)C1=C(CN2CC(F)(F)C[C@@H]2CCC(=O)O)NC(c2nccs2)=N[C@H]1c1ccc(Cl)cc1Cl [Example 22, 3-((S)-1-(((R)-6-(2,4-dichlorophenyl)-5-(methoxycarbonyl)-2-(thiazol-2-yl)-3,6-dihydropyrimidin-4-yl)methyl)-4,4-difluoropyrrolidin-2-yl)propanoic acid] | 11
